Molecules are shown by their SMILES.

The assay deals with Beta-3 Adrenergic Receptor (Homo sapiens (Human), UniProt P13945). Kind of assay: Homogeneous Time-Resolved Fluorescence (HTRF) cAMP antagonist assay, IC50 determination. It counts as cell-based. Conditions: CHO-K1 cells stably expressing recombinant receptor, isoproterenol at EC90. The essentials: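 Antagonist mode: isoproterenol at its predetermined EC90 added after compound to recombinant CHO-K1 cells in IBMX-containing PBS, 1 h, room temperature. Compounds tested as 5-fold, 10-point dilutions, top final typically 10 or 100 μM. HTRF signal converted to cAMP via standard curve, giving IC50.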
Chain of Beta-3 Adrenergic Receptor (P13945 whole entry, species assumed): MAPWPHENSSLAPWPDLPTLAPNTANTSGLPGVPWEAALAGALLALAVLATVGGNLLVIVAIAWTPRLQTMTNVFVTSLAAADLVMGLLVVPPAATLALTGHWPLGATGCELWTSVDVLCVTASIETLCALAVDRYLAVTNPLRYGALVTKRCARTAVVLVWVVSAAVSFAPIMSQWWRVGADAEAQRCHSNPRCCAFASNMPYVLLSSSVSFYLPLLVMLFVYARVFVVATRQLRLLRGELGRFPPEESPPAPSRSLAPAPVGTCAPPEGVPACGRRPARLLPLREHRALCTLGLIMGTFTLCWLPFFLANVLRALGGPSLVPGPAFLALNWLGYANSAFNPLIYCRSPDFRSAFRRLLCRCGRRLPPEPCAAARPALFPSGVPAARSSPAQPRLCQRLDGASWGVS
(In general: In TR-FRET formats the signal depends on donor and acceptor labels being close together.)
A word on the IC50: it is the concentration needed to halve the response being measured. In the case of `CNS(=O)(=O)c1cccc(OC[C@@H](O)CN[C@@H]2COC3(CCN(S(=O)(=O)c4cnc5c(c4)N(C)CCO5)CC3)C2)c1` [Compound 413, 3-((S)-2-hydroxy-3-((S)-8-(1-methyl-2,3-dihydro-1H-pyrido[2,3-b][1,4]oxazin-7-ylsulfonyl)-1-oxa-8-azaspiro[4.5]decan-3-ylamino)propoxy)-N-methylbenzenesulfonamide], the IC50 came to 14 nM.

For the molecule `CNS(=O)(=O)c1cccc(OC[C@@H](O)CNC2COC3(CCN(S(=O)(=O)c4cc(-c5ccc(CN)cc5)cc(C(F)(F)F)c4)CC3)C2)c1` (stereo partly drawn) [Compound 367, 3-((2S)-3-(8-(4′-(aminomethyl)-5-(trifluoromethyl)biphenyl-3-ylsulfonyl)-1-oxa-8-azaspiro[4.5]decan-3-ylamino)-2-hydroxypropoxy)-N-methylbenzenesulfonamide], the IC50 worked out at 31.2 nM.

As for `CNS(=O)(=O)c1cccc(OC[C@@H](O)CNC2COC3(CCN(S(=O)(=O)c4ccccc4Cl)CC3)C2)c1` (stereo partly drawn) [Compound 35, 3-((2S)-3-(8-(2-chlorophenylsulfonyl)-1-oxa-8-azaspiro[4.5]decan-3-ylamino)-2-hydroxypropoxy)-N-methylbenzenesulfonamide], the IC50 turned out to be 18.9 nM. For the molecule `CN(C)S(=O)(=O)c1cccc(OC[C@@H](O)CNC2COC3(CCN(S(=O)(=O)c4ccc(Cl)c5nonc45)CC3)C2)c1` (stereo partly drawn) [Compound 257, 3-((2S)-3-(8-(7-chlorobenzo[c][1,2,5]oxadiazol-4-ylsulfonyl)-1-oxa-8-azaspiro[4.5]decan-3-ylamino)-2-hydroxypropoxy)-N,N-dimethylbenzenesulfonamide], the IC50 was 37 nM. In the case of `CNS(=O)(=O)c1cccc(OC[C@@H](O)CN[C@H]2COC3(CCN(c4ncc(Cc5ccccc5)cn4)CC3)C2)c1` [Compound 570, 3-((S)-3-((R)-8-(5-benzylpyrimidin-2-yl)-1-oxa-8-azaspiro[4.5]decan-3-ylamino)-2-hydroxypropoxy)-N-methylbenzenesulfonamide], the IC50 is 143 nM. As for `CNS(=O)(=O)c1cccc(OC[C@@H](O)CNC2COC3(CCN(S(=O)(=O)c4ccc5c(c4)CC(=O)N5)CC3)C2)c1` (stereo partly drawn) [Compound 182, 3-((2S)-2-hydroxy-3-(8-(2-oxoindolin-5-ylsulfonyl)-1-oxa-8-azaspiro[4.5]decan-3-ylamino)propoxy)-N-methylbenzenesulfonamide], the IC50 amounted to 105 nM. With `CNS(=O)(=O)c1cccc(OC[C@@H](O)CN[C@@H]2COC3(CCN(S(=O)(=O)c4cccc(-c5ccc(CNC(C)C)cc5)c4)CC3)C2)c1` [Compound 359, 3-((S)-2-hydroxy-3-((S)-8-(4′-((isopropylamino)methyl)biphenyl-3-ylsulfonyl)-1-oxa-8-azaspiro[4.5]decan-3-ylamino)propoxy)-N-methylbenzenesulfonamide], the IC50 is 17.9 nM.

Regarding `CNS(=O)(=O)c1cccc(OC[C@@H](O)CNC2COC3(CCN(S(=O)(=O)c4cncc(OC)c4)CC3)C2)c1` (stereo partly drawn) [Compound 386, 3-((2S)-2-hydroxy-3-(8-(5-methoxypyridin-3-ylsulfonyl)-1-oxa-8-azaspiro[4.5]decan-3-ylamino)propoxy)-N-methylbenzenesulfonamide], the IC50 was 57.9 nM. In the case of `CNS(=O)(=O)c1cccc(OC[C@@H](O)CNC2COC3(CCN(S(=O)(=O)c4cc(Br)ccc4OCCN4CCCC4)CC3)C2)c1` (stereo partly drawn) [Compound 412, 3-((2S)-3-(8-(5-bromo-2-(2-(pyrrolidin-1-yl)ethoxy)phenylsulfonyl)-1-oxa-8-azaspiro[4.5]decan-3-ylamino)-2-hydroxypropoxy)-N-methylbenzenesulfonamide], the IC50 turned out to be 49.6 nM. Take `CNS(=O)(=O)c1cccc(OC[C@@H](O)CN[C@H]2COC3(CCN(S(=O)(=O)c4cnc5c(c4)OCCN5)CC3)C2)c1` [Compound 500, 3-((S)-3-((R)-8-(3,4-dihydro-2H-pyrido[3,2-b][1,4]oxazin-7-ylsulfonyl)-1-oxa-8-azaspiro[4.5]decan-3-ylamino)-2-hydroxypropoxy)-N-methylbenzenesulfonamide]: the IC50 is 28.8 nM. For the molecule `CNS(=O)(=O)c1cccc(OC[C@@H](O)CNC2COC3(CCN(S(=O)(=O)c4cccc(-c5ccc(C)nc5)c4)CC3)C2)c1` (stereo partly drawn) [Compound 111, 3-((2S)-2-hydroxy-3-(8-(3-(6-methylpyridin-3-yl)phenylsulfonyl)-1-oxa-8-azaspiro[4.5]decan-3-ylamino)propoxy)-N-methylbenzenesulfonamide], the IC50 is 26.3 nM. `CCn1ncc(S(=O)(=O)N2CCC3(CC2)CC(NC[C@H](O)COc2cccc(S(=O)(=O)NC)c2)CO3)c1C` (stereo partly drawn) [Compound 329, 3-((2S)-3-(8-(1-ethyl-5-methyl-1H-pyrazol-4-ylsulfonyl)-1-oxa-8-azaspiro[4.5]decan-3-ylamino)-2-hydroxypropoxy)-N-methylbenzenesulfonamide]: the IC50 was found to be 156 nM.

Turning to `CNS(=O)(=O)c1cccc(OC[C@@H](O)CNC2COC3(CCN(S(=O)(=O)c4cc(-c5ccc(CN)cc5)ccc4OC)CC3)C2)c1` (stereo partly drawn) [Compound 357, 3-((2S)-3-(8-(4′-(aminomethyl)-4-methoxybiphenyl-3-ylsulfonyl)-1-oxa-8-azaspiro[4.5]decan-3-ylamino)-2-hydroxypropoxy)-N-methylbenzenesulfonamide], the IC50 was found to be 15.7 nM. In the case of `CNS(=O)(=O)c1cccc(OC[C@@H](O)CNC2COC3(CCN(S(=O)(=O)c4ccc(-c5ccccc5)cc4)CC3)C2)c1` (stereo partly drawn) [Compound 123, 3-((2S)-3-(8-(biphenyl-4-ylsulfonyl)-1-oxa-8-azaspiro[4.5]decan-3-ylamino)-2-hydroxypropoxy)-N-methylbenzenesulfonamide], the IC50 is 40.5 nM. Turning to `CNS(=O)(=O)c1cccc(OC[C@@H](O)CNC2COC3(CCN(S(=O)(=O)c4cccc(-c5ccco5)c4)CC3)C2)c1` (stereo partly drawn) [Compound 78, 3-((2S)-3-(8-(3-(furan-2-yl)phenylsulfonyl)-1-oxa-8-azaspiro[4.5]decan-3-ylamino)-2-hydroxypropoxy)-N-methylbenzenesulfonamide], the IC50 turned out to be 20.7 nM. With `CNS(=O)(=O)c1cccc(OC[C@@H](O)CN[C@H]2COC3(CCN(S(=O)(=O)c4ccc(Br)c(C)c4)CC3)C2)c1` [Compound 271, 3-((S)-3-((R)-8-(4-bromo-3-methylphenylsulfonyl)-1-oxa-8-azaspiro[4.5]decan-3-ylamino)-2-hydroxypropoxy)-N-methylbenzenesulfonamide], the IC50 came out at 7.53 nM. For `CCNS(=O)(=O)c1cccc(OC[C@@H](O)CNC2COC3(CCN(S(=O)(=O)c4cc(C)ccc4F)CC3)C2)c1` (stereo partly drawn) [Compound 226, N-ethyl-3-((2S)-3-(8-(2-fluoro-5-methylphenylsulfonyl)-1-oxa-8-azaspiro[4.5]decan-3-ylamino)-2-hydroxypropoxy)benzenesulfonamide], the IC50 came to 155 nM.

For the molecule `CNS(=O)(=O)c1cccc(OC[C@@H](O)CN[C@H]2COC3(CCN(S(=O)(=O)c4cccc(-c5ccc(CNC(C)C)cc5)c4)CC3)C2)c1` [Compound 362, 3-((S)-2-hydroxy-3-((R)-8-(4′-((isopropylamino)methyl)biphenyl-3-ylsulfonyl)-1-oxa-8-azaspiro[4.5]decan-3-ylamino)propoxy)-N-methylbenzenesulfonamide], the IC50 is 27.5 nM. Regarding `CNS(=O)(=O)c1cccc(OC[C@@H](O)CNC2COC3(CCN(S(=O)(=O)c4cccc5ccccc45)CC3)C2)c1` (stereo partly drawn) [Compound 55, 3-((2S)-2-hydroxy-3-(8-(naphthalen-1-ylsulfonyl)-1-oxa-8-azaspiro[4.5]decan-3-ylamino)propoxy)-N-methylbenzenesulfonamide], the IC50 amounted to 18 nM. Take `CNS(=O)(=O)c1cccc(OC[C@@H](O)CNC2COC3(CCN(S(=O)(=O)c4cccc(-c5cccc(S(=O)(=O)N(C)C)c5)c4)CC3)C2)c1` (stereo partly drawn) [Compound 115, 3′-(3-((S)-2-hydroxy-3-(3-(N-methylsulfamoyl)phenoxy)propylamino)-1-oxa-8-azaspiro[4.5]decan-8-ylsulfonyl)-N,N-dimethylbiphenyl-3-sulfonamide]: the IC50 was 33.5 nM. As to `NS(=O)(=O)c1cccc(OC[C@@H](O)CN[C@H]2COC3(CCN(S(=O)(=O)c4cnc5ccccc5c4)CC3)C2)c1` [Compound 562, 3-((S)-2-hydroxy-3-((R)-8-(quinolin-3-ylsulfonyl)-1-oxa-8-azaspiro[4.5]decan-3-ylamino)propoxy)benzenesulfonamide], the IC50 amounted to 16.3 nM. As for `CNS(=O)(=O)c1cccc(OC[C@@H](O)CN[C@H]2COC3(CCN(c4ncc(C(F)(F)F)cn4)CC3)C2)c1` [Compound 583, 3-((S)-2-hydroxy-3-((R)-8-(5-(trifluoromethyl)pyrimidin-2-yl)-1-oxa-8-azaspiro[4.5]decan-3-ylamino)propoxy)-N-methylbenzenesulfonamide], the IC50 worked out at 1840 nM.

Take `CNS(=O)(=O)c1cccc(OC[C@@H](O)CN[C@H]2COC3(CCN(c4cnc(C(F)(F)F)cn4)CC3)C2)c1` [Compound 585, 3-((S)-2-hydroxy-3-((R)-8-(5-(trifluoromethyl)pyrazin-2-yl)-1-oxa-8-azaspiro[4.5]decan-3-ylamino)propoxy)-N-methylbenzenesulfonamide]: the IC50 is 202 nM. On to `CCNS(=O)(=O)c1cccc(OC[C@@H](O)CNC2COC3(CCN(S(=O)(=O)c4ccc5nsnc5c4)CC3)C2)c1` (stereo partly drawn) [Compound 229, 3-((2S)-3-(8-(benzo[c][1,2,5]thiadiazol-5-ylsulfonyl)-1-oxa-8-azaspiro[4.5]decan-3-ylamino)-2-hydroxypropoxy)-N-ethylbenzenesulfonamide], for which the IC50 amounted to 272 nM. As for `CNS(=O)(=O)c1cccc(OC[C@@H](O)CN[C@@H]2COC3(CCN(S(=O)(=O)c4cccc(-c5ccc(N)nc5)c4)CC3)C2)c1` [Compound 286, 3-((S)-3-((S)-8-(3-(6-aminopyridin-3-yl)phenylsulfonyl)-1-oxa-8-azaspiro[4.5]decan-3-ylamino)-2-hydroxypropoxy)-N-methylbenzenesulfonamide], the figure is 20.5 nM.

For the origin of these results see patent US11987588B2, “Modulators of the beta-3 adrenergic receptor useful for the treatment or prevention of heart failure and disorders related thereto” (Arena Pharmaceuticals, Inc., priority 2017, dated 2024).
